Test results reported in patent US20260207535A1, “CRIBLAGE INHIBITEURS USP8” (COMMISSARIAT A L'ENERGIE ATOMIQUE ET AUX ENERGIES …, priority 2022, published 2026).

Experiments:
AtT-20 pituitary cells = assay: Inhibition of ACTH secretion in pituitary cells (ACTH EIA on supernatant); format: cell-based, mouse; conditions: 25 μM, 24-hour treatment; for activity at 25 µM: read-out: ACTH secretion % of control (DMSO) at 25 μM
Method: ACTH release (percent comparison to DMSO control). Briefly, 12,500 AtT-20 cells per well were seeded in a 96-well plate. After 24 hours exposure, cells were treated with each compound at the indicated final concentration, or with DMSO alone (control condition compound solvent) or with corticotropin releasing factor (indicated CRF) at 100 nM. After a 24-hour treatment, cell supernatants were collected and stored at −80° C., prior to quantification of ACTH concentration using ACTH chemiluminescent EIA kit (Phoenix Pharmaceuticals, Inc.). Determination of ACTH concentrations was based on the best-fitting ACTH standard curve and P values were calculated using one-way ANOVA, using Prism 9 software (GraphPad Software, Inc.) ns (P=0.12). **P<0.002. ***P<0.001. All compounds were tested in technical triplicates. One representative experiment out of three is presented.
FIG. 4: illustrates a decrease of ACTH secretion by AtT-20 cells after 24-hour treatment of halogenated salicylanilides. 12,500 AtT-20 cells per well were seeded in a 96-well plate. […] After a 24-hour treatment, cell supernatants were collected and stored at −80° C., prior to quantification of ACTH concentration using ACTH chemiluminescent EIA kit (Phoenix Pharmaceuticals, Inc.). Determination of ACTH concentrations was based on the best-fitting ACTH standard curve and P values were calculated by ordinary one-way ANOVA using Prism 6 software (GraphPad Software, Inc), ns (not significant), **** P<0.0001. Compounds were tested in technical triplicates.
12,500 AtT-20 cells per well were seeded in a 96-well plate. After 24 hours, cells were treated with compounds (corresponding chemical formula are indicated in Table 1) at 25 μM final concentration, or with DMSO alone (compound solvent). After a 24-hour treatment, cell supernatants were collected and stored at −80° C., prior to quantification of ACTH concentration using ACTH chemiluminescent EIA kit (Phoenix Pharmaceuticals, Inc.). Determination of ACTH concentrations was based on the best-fitting ACTH standard curve and P values were calculated by ordinary one-way ANOVA using Prism 6 software (GraphPad Software, Inc), ns (not significant), *P<0.05, ***P<0,0001. Compounds were tested in technical triplicates.
Mouse AtT-20 pituitary cell line were used as a powerful and well-characterized model to monitor ACTH secretion using an enzyme immunoassay (EIA) kit.
Mouse AtT-20 cells were obtained from the American Type Culture Collection and maintained on DMEM containing 10% fetal bovine serum, 100 μg/mL streptomycin and 100 U/mL penicillin at 37° C. with 5% CO2 after recovery from long-term storage on liquid nitrogen-vapor phase.
The ACTH secretion levels of AtT-20 cell culture was monitored on the supernatant of AtT-20 cells treated or not by increasing doses of compounds belonging to the family of halogenated salicylanilides chemicals.
1.25×10^4 AtT20 cells were seeded on polylysine-coated 96-well culture vessels on 150 μL of complete medium. After 24 hours, cells were treated with stock compounds to a final DMSO concentration of 0.5%. After 24 hours of treatment, cell culture supernatant was collected, cleared for 10 min at 1000×g at 4° C., diluted or not in assay buffer (Phoenix Peptide ACTH EIA EK-001-21) and frozen at −80° C. for subsequent processing according to the instructions of the kit's manufacturer.

AtT-20 cells = assay: Cytotoxicity towards AtT-20 cells (PrestoBlue viability assay); conditions: 25 μM, 24-hour exposure
Source text: The AtT-20 cells viability was monitored in the conditions used to follow ACTH secretion. The viability of treated cells was concomitantly evaluated using a Cell Viability Reagent (monitoring of the cells' reducing capacity) (PrestoBlue® assay, Molecular Probes) with the aim to determine non-toxic doses of cell treatment.
After the collection of the supernatant sample for the ACTH assay in the previous step, cells were supplemented with the PrestoBlue™ cell viability reagent (Invitrogen™ A13261) at 10% final volume, and re-incubated at 37° C. for 30 minutes. Fluorescence was then read with a FLUOstar OPTIMA microplate reader.

[1] = molecular target: T1, Full length USP8 (USP8FL) (Homo sapiens, UniProt P40818); assay: USP8FL (full length USP8) enzymatic inhibition, Ub-Rhodamine 110 hydrolysis in L-cysteine buffer; format: biochemical; conditions: USP8 FL 75 nM, Ub-Rho 0.1 μM, L-cysteine buffer; read-out: USP8FL inhbition IC50 [μM] (CI: Confidence Interval)
T1 construct: purchased BostonBiochem E-520
T1 sequence (P40818 1-1118): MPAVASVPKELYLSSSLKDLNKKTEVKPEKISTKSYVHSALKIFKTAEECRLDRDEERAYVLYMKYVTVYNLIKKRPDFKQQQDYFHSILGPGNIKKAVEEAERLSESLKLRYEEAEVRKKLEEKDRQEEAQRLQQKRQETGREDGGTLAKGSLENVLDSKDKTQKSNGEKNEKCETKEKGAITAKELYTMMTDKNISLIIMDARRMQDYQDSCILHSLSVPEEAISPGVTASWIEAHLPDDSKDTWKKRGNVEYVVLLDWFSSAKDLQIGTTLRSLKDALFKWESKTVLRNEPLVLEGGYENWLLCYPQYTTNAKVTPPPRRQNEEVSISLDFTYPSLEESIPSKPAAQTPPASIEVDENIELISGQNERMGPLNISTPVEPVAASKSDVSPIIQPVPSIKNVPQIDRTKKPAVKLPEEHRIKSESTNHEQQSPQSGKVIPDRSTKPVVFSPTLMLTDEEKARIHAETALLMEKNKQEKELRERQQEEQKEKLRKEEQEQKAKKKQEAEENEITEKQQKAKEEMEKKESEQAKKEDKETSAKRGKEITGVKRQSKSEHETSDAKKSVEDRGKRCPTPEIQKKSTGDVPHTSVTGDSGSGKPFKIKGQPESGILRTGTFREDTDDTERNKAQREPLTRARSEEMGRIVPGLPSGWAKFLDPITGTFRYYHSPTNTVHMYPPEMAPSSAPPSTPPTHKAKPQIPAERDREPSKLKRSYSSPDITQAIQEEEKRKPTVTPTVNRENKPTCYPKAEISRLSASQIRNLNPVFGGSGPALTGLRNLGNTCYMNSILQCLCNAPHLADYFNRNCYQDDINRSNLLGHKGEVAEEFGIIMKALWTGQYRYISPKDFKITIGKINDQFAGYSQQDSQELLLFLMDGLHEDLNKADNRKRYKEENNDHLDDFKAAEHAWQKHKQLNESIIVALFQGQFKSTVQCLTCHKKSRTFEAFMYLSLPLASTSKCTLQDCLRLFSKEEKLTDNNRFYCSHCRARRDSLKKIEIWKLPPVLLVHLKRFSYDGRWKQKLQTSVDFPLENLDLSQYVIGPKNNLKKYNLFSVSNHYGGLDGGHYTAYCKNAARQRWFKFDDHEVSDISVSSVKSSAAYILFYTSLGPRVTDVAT
Method: USP8 FL (USP8 Full Length) was incubated at a concentration of 75 nM in the presence of Ub-Rho (UBIQUIGENT ref. 60-0117-050) at a final concentration of 0.1 μM, in conditions ensuring linearity of enzyme activity throughout the assay in a specific buffer. Compounds were added to the reaction mix at different doses just before the substrate. The enzymatic reaction kinetics were monitored by measuring fluorescence elicited by the hydrolysis of Ub-Rho over 30 min.
In this setup, an in-house purified catalytic domain of USP8 (USP8CD) was used at a concentration of 80 nM in the presence of the artificial substrate Ubiquitin-Rhodamine 110 (Ub-Rho) (ref: 60-0117-050 Ubiquigent) at a final concentration of 0.1 μM, in conditions ensuring linearity of enzyme activity throughout the assay incubation time. Enzymatic assay was performed in a Tris HCl buffer (40 mM Tris HCl pH 7.4, Ovalbumine 0.5 mg/ml, Cysteine HCl 5.5 mM). Compounds to be tested were added to the reaction mix and incubated with enzyme for 20 min, before the substrate. The enzymatic reaction kinetics were monitored by measuring fluorescence elicited by the hydrolysis of the peptidyl Ub-Rho over 30 minutes. The negative control was the solvent DMSO at 1%.
Full length USP8 (USPBFL) (BostonBiochem ref. E-520) were used at a concentration of 75 nM in the presence of a ubiquitin substrate, i.e., the Ub-Rhodamine 110 (Ub-Rho) (Ubiquigent ref. 60-0117-050) at a final concentration of 0.1 μM. Enzymatic assays were performed as described for USP8-CD except that USP-FL was used at a concentration of 75 nM. The compounds were used at a final concentration of 0.1, 1, 5, 10, 50 and 100 μM in DMSO 0.5%. The USP8 catalytic activity was monitored both before adding the substrate (TO) and after twenty minutes of incubation at room temperature (Final Time TF). The enzymatic reaction kinetics were monitored by measuring fluorescence elicited by the hydrolysis of the Ub-Rho bound over 30 minutes.

[2] = Mus musculus, AtT20, AtT-20 supernatant

Structure (SMILES)	inhibition of ACTH at 25 μM, in words (FIG. 4, FIG. 5) (AtT-20 pituitary cells)	activity at 25 µM (AtT-20 pituitary cells; [2])	AtT-20 cell viability (PrestoBlue assay) % of control (DMSO) at 25 μM Mean (SD) (AtT-20 cells)	IC50 [1]	ACTH secretion % of control (DMSO) at 25 μM (AtT-20 pituitary cells; AtT-20 supernatant)	inhibition at 25 µM (AtT-20 pituitary cells; Mus musculus, AtT20, p<0.05)
O=C(Nc1ccc(O)cc1)c1cc(I)ccc1O [Z69118571]	ineffective	101%	106.7 (20.87) %	> 100 µM		
O=C(Nc1ccc(Cl)cc1C(=O)c1ccccc1F)c1ccc(=O)[nH]c1 [Z220328740]	ineffective		102.9 (15.16) %	> 40 µM	82%	
O=C(CSc1ccccc1F)Nc1cccc(OCc2ccccn2)c1 [Z393438700]	ineffective	92%	101.1 (16.04) %	> 40 µM		
O=C(NCc1cccc(OCc2ccccn2)c1)c1csc(Br)c1 [Z424433412]	ineffective	80%	98.93 (14.69) %	> 40 µM		20%
Cc1ccc(NC(=O)Cn2ccccc2=O)c(OCc2ccccc2)c1 [Z738998144]	ineffective	90%	95.98 (15.33) %	> 40 µM		
